US20120021967A1, “SYNTHETIC ANTIBODIES” (Arizona Board of Regents, A Body Corporate of the State Of …, priority 2008, published 2012)
Bridges are numbered along the chain shown (N, C = ends). Roman numbers before positions name the chains, in order. Where no end group is shown, it is not given here.

Columns and labels:
AKT1 = AKT1 (Homo sapiens, UniProt P31749); assay: SPR of SYN23-26 binding to AKT1; settings: read-out: estimated Kd with respect to AKT1
transferrin [1] = molecular target: T1, transferrin (Homo sapiens, UniProt P02787); assay: SPR of lysine-linked synbodies on immobilized transferrin, Kd from kinetics; assay type: binding; settings: Kd determined from kinetics; read-out: Kd with respect to transferrin
Method: Transferrin 25 μg/ml in immobilization buffer selected for correct pH was then applied 302 at a flow rate of 5 to 10 μl/min for a contact time of about 5 to 10 minutes, allowing the amine functionality on the transferrin 308 to displace the activated NHS ester and bond to the surface via an amide bond. Finally, ethylene diamine (1-Methylene diamine-HCl at pH 8.5) was applied 304 at a flow rate of 5 to 10 μl/min for a contact time of about 6 to 7 minutes to deactivate any remaining reactive groups on the dextran chip surface. Flow rates and contact times are adjusted as necessary to provide the surface concentration of target desired for the intended application, and may vary by target. In general, for evaluating whether binding occurs, it is preferable to immobilize a relatively large quantity of target, and higher flow rates and/or longer contact times may be used. For determining kinetics, it is preferable to limit the amount of target immobilized so as to minimize rebinding and avidity effects, and lower flow rates and/or contact times may be used.
Candidate affinity elements for the transferrin synbody TRF19, TRF21, TRF23, TRF24, TRF25, and TRF26 were individually evaluated for solution phase KD with respect to transferrin by SPR analysis. […]

transferrin [2] = molecular target: T1, transferrin; assay: SPR of SYN23-26 binding to transferrin; settings: read-out: estimated Kd with respect to transferrin
[3] = test system: 8,000 human proteins (GST fusion); assay: Invitrogen Protoarray Human Protein Microarray binding pattern (8,000 features); settings: fluorescence intensity on human protein microarray
Method: Two biotinylated anti-TRF synbodies (SYN23-26 and SYN 21-22) were applied to a protein microarray having 8,000 features (Invitrogen Protoarray Human Protein Microarray v. 4.0 for immune response biomarker profiling), each feature comprising a distinct human protein (GST fusion) adsorbed to a nitrocellulose coated slide. Application of the synbodies to the microarray was performed in accordance with manufacturer instructions: (see ProtoArray Human Protein Microarray, Invitrogen, Catalog no. PAH052401, Version B, 15 Dec. 2006, 25-0970, Users Manual.) After blocking the array with 1% BSA/PBS/0.1% Tween for 1 hour at 4C with gentle shaking, 120 μl of probing buffer (1×PBS, 5 mM mgC12, 0.5 mM DTT, 0.05% Triton X-100, 5% glycerol, 1% BSA) with synbody was applied to the array. The prescribed cover slip was placed over the array and adjusted to remove air bubbles. The array was incubated in a 50 ml conical tube, printed side up, for 1.5 hours at 4C without shaking. The array was then removed from the conical tube inserted diagonally into the array chamber, kept on ice. 8 ml probing buffer was added to the chamber wall. The cover slip was removed and the array was incubated in probing buffer for 1 minute on ice. […] The array was dried in the dark for 60 minutes at room temperature, after which it was scanned using a fluorescent microarray scanner and data was taken and analyzed.

T1 sequence (P02787 20-698): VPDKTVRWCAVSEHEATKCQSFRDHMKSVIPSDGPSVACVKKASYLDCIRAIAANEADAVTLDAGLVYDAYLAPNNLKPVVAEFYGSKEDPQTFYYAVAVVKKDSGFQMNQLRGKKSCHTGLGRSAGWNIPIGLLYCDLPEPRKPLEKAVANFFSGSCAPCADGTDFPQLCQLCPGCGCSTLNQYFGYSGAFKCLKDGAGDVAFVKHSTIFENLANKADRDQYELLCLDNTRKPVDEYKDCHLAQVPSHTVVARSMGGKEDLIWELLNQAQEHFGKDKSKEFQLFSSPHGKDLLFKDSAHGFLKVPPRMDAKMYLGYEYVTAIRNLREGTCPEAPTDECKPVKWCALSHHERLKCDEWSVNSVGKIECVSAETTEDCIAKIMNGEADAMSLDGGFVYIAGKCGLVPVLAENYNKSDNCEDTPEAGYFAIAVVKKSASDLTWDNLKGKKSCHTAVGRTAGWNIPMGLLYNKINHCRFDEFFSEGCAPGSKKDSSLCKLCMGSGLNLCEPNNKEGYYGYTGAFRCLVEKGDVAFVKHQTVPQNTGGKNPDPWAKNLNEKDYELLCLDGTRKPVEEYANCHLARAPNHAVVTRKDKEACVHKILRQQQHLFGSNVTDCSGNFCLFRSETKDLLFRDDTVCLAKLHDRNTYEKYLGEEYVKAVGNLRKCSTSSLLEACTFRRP
AKT1, sequence (P31749 whole entry): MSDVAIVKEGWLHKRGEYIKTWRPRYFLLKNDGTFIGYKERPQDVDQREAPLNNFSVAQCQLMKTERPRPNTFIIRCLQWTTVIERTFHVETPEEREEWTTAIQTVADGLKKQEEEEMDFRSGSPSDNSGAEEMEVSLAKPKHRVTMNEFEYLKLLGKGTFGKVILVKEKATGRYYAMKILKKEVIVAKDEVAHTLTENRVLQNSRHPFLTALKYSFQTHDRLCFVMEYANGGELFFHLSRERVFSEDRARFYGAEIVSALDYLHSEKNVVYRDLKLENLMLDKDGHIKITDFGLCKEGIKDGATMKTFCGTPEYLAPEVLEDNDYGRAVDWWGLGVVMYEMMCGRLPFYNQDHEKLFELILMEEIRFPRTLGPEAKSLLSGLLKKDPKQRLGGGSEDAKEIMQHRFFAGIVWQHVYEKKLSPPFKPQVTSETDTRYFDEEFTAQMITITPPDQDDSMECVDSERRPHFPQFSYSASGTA

## I: AHKVVPQRQIRHAYNRYGSGKC / II: FRGWAHIFFGPHVIYRGGSG (amide I:21-II:C) [SYN23-26]
AKT1
  Kd: ~0.001 µM
Transferrin [1]
  Kd: 0.15 ± 0.05 µM
Transferrin [2]
  Kd: ~0.141 µM
[3]
  highest affinity target from a library of 8,000: PCCA
